In brackets after ≈: the same amount, converted by molar mass.
Experiments:
[1] = system: Mycobacterium tuberculosis; experiment: Antitubercular activity against Mycobacterium tuberculosis H37Rv assessed as inhibition of bacterial growth incubated for 5 days by Alamar Blue based assay; assay type: functional, organism-based; settings: 120 h
[2] = system: Mycobacterium tuberculosis; experiment: Antitubercular activity against Mycobacterium tuberculosis by alamar blue assay; assay type: functional
[3] = system: Mycolicibacterium smegmatis; experiment: Antimycobacterial activity against Mycobacterium smegmatis; assay type: functional
[4] = system: Mycobacterium tuberculosis; experiment: Antitubercular activity against Mycobacterium tuberculosis H37Rv; assay type: functional

SMILES: Oc1ccccc1-c1cc(C(F)(F)F)no1
- IC50 [1]: 11.7 µg/mL (≈ 51.1 µM)

SMILES: CCCCCCCCCCCC(=O)NS(=O)(=O)OC[C@H]1O[C@@H](n2cnc3c(N)ncnc32)[C@H](O)[C@@H]1O
- MIC [2]: 100 µM (≈ 52.9 µg/mL)
- MIC [3]: 215 µM (≈ 114 µg/mL)
- MIC [4]: 100 µM (≈ 52.9 µg/mL)
